Assays:
mice [1] = test: Luc expression (total flux) after intramuscular administration; format: in vivo; conditions: 6 hours after intramuscular administration, Luc mRNA and H10 mRNA
Procedure: The numbers 1-7 in this figure correspond to MC3, Compounds 168-170, and 173-175 respectively.
(§1) In order to monitor how effectively various nanoparticle compositions deliver therapeutic and/or prophylactics to targeted cells, different nanoparticle compositions including a particular therapeutic and/or prophylactic (for example, a modified or naturally occurring RNA such as an mRNA) are prepared and administered to rodent populations. Mice are intravenously, intramuscularly, intraarterially, or intratumorally administered a single dose including a nanoparticle composition with a formulation such as those provided in Example 3. In some instances, mice may be made to inhale doses. Dose sizes may range from 0.001 mg/kg to 10 mg/kg, where 10 mg/kg describes a dose including 10 mg of a therapeutic and/or prophylactic in a nanoparticle composition for each 1 kg of body mass of the mouse. A control composition including PBS may also be employed.
(§2) The total flux (measured by area under the curve, AUC) induced by administration of a formulation including a given lipid relative to that induced by administration of a formulation including MC3 was also measured for several lipids.
Sample formulations including both modified luciferase (Luc) mRNA and H10 mRNA were prepared and administered intramuscularly and the resulting expression and immunogenicity were evaluated simultaneously. Formulations including compounds according to Formula (I), (IA), (II), (IIa), (IIb), (IIc), (IId) or (IIe) were prepared and administered at doses of 0.001 and 0.01 mpk (e.g., doses of 0.0005 mpk of a formulation including Luc mRNA and a formulation including H10 mRNA or doses of 0.005 mpk of a formulation including Luc mRNA and a formulation including H10 mRNA).
Sample formulations including modified luciferase (Luc) mRNA prepared and administered intramuscularly and the resulting expression and immunogenicity were evaluated simultaneously. Formulations including compounds according to Formula (I), (IA), (II), (IIa), (IIb), (IIc), (IId) or (IIe) were prepared and administered at dose of […] 0.01 mpk.
The fluxes measured upon intravenous and intramuscular administration are compared in Table 6. Fluxes are presented as fold increase over that measured for MC3 formulations.

rats = test: Residual lipid levels in liver and spleen of rats (UPLC-MS quantification); format: in vivo, rat; conditions: rats, 2 mpk, 48 h; assuming 300 g rat and 15 g liver
Procedure: At 48 h liver tissue was harvested for lipid quantification. To pre-weighed tissues, Milli-Q water was added (900 μL water per 100 mg tissue). Tissues were homogenized using an Omni probe homogenizer until uniform. 50 μL of samples and matrix calibration standards were aliquoted into a 96-well plate. 50 μL of blank matrix for matrix blanks and control blanks were aliquoted. 400 μL IS spiking solution were manually added to all samples except matrix blanks. 400 μL of 50:50 ACN:IPA were manually added to matrix blanks. The plate was covered and the samples vortexed and centrifuged for 5 minutes at >3000 rpm. 200 μL of the samples were transferred into a clean 96-well plate for analysis. Samples were analyzed on a Waters Acquity UPLC using a Higgins Analytical Clipeus C8 column ([…], 30×2.1 mm) and a gradient of either 70-95% or 60-95% (Mobile Phase A: 5 mM ammonium formate in 50:50:1 H2O:MeOH:formic acid; Mobile Phase B: 5 mM ammonium formate in 100:1 MeOH:formic acid) over 1.3 min at 1.2 mL/min (column temperature 55° C.). Detection was based on electrospray ionization (ESI) in positive mode using a Sciex API5500 Mass Spectrometer.
The expression of hEPO in rats intravenously administered a nanoparticle composition at a dose of 0.2 mpk or 2.0 mpk was measured at 6 hours. Table 16 summarize the ratio of hEPO expression levels using various nanoparticle compositions as compared to the hEPO expression level using MC3 formulation and the lipid levels in the liver measured 48 hours after administration, as described above. Tables 17 and 18 summarize the lipid levels in the liver and spleen measured 48 hours after administration of Compounds 28, 33, 53, and 54. Liver and spleen levels represent the average values calculated for 3 rats in each group. As is shown in Tables 17 and 18, less than 10% of Compounds 28, 33, 53, and 54 remained in the liver after 48 hours, while greater than 60% of MC3 remained.
Table 19 summarizes the hEPO expression, IP-10 induction, liver and spleen levels, and alanine aminotransferase (ALT) and aspartate aminotransferase (AST) measured upon intravenous administration of formulations including Compounds 48, 49, and 50 to rat at 0.2 and 2 mpk and hEPO mRNA. hEPO concentrations were measured 6 hours after administration, while cytokine induction and liver and spleen levels were measured 48 hours after administration. hEPO and IP-10 concentrations are presented in pg/ml, while liver levels are provided in ng/g. ALT and AST levels are presented in international units.
The expression of hEPO induced by intravenous administration to rats of nanoparticle compositions at various doses was measured at 2, 4, 6, 8, 24, and 48 hour time points. FIGS. 3-6 respectively summarize the hEPO expression measured upon intravenous administration of formulations including Compounds 26, 18, 25, and MC3 to rat at various doses. The lipid levels of Compound 26 in the liver after 48 hours were about 19%.
The expression of hEPO and lipid levels in the liver and spleen in rats intravenously administered a nanoparticle composition at a dose of 0.2 mpk was measured at various timepoints. Compounds 18 and 25 were selected for comparison with MC3. Lipids were formulated according to the standard MC3 formulation described above. Rats were administered intravenously a single 0.2 mpk dose and expression monitored at 0.25, 0.5, 1, 2, 4, 8, 24, and 48 hours after administration.

[2] = Particle size and polydispersity index of nanoparticle compositions (Zetasizer Nano ZS); format: physicochemical; conditions: for PDI: nanoparticle composition 50:10:38.5:1.5 mol % (Table 1A); for Size (nm): nanoparticle composition lipid:DSPC:cholesterol:PEG-DMG 50:10:38.5:1.5 mol %, mRNA encoding Luc or hEPO (Table 1A)
Excerpt: Nanoparticle compositions may be characterized by a variety of methods. For example, microscopy (e.g., transmission electron microscopy or scanning electron microscopy) may be used to examine the morphology and size distribution of a nanoparticle composition. Dynamic light scattering or potentiometry (e.g., potentiometric titrations) may be used to measure zeta potentials. Dynamic light scattering may also be utilized to determine particle sizes. Instruments such as the Zetasizer Nano ZS (Malvern Instruments Ltd, Malvern, Worcestershire, UK) may also be used to measure multiple characteristics of a nanoparticle composition, such as particle size, polydispersity index, and zeta potential.
A Zetasizer Nano ZS (Malvern Instruments Ltd, Malvern, Worcestershire, UK) can be used to determine the particle size, the polydispersity index (PDI) and the zeta potential of the nanoparticle compositions in 1×PBS in determining particle size and 15 mM PBS in determining zeta potential.
Initial studies were performed to compare the delivery efficiency of nanoparticle compositions including various compounds according to Formula (I), (IA), (II), (IIa), (IIb), (IIc), (IId) or (IIe). The cationic lipid MC3 is a current standard in the art. Accordingly, the standard MC3 formulation including about 50 mol % MC3, about 10 mol % DSPC, about 38.5 mol % cholesterol, and about 1.5 mol % PEG-DMG was used as a basis for this study. Nanoparticle compositions including DSPC as a phospholipid, cholesterol as a structural lipid, PEG-DMG as a PEG lipid, an RNA, and a compound according to Formula (I), (IA), (II), (IIa), (IIb), (IIc), (IId) or (IIe) selected from Compounds 1-159, 168-170, and 173-175 were prepared according to or via methods similar to those described in Examples 1 and 2. The ratios of the lipids were 50:10:38.5:1.5 mol % for the lipid according to Formula (I), (IA), (II), (IIa), (IIb), (IIc), (IId) or (IIe):DSPC:cholesterol:PEG-DMG. The RNA used was an mRNA encoding G5 luciferase (Luc) or G5 hEPO. Tables 1A-1B summarize the content and characteristics of the formulations. […]

mice [3] = test: Luc expression (bioluminescence, total flux) after intravenous administration to mice; format: in vivo; conditions: Luc total flux (Table 3D)
Procedure: as §1
Upon administration of nanoparticle compositions to mice, dose delivery profiles, dose responses, and toxicity of particular formulations and doses thereof can be measured by enzyme-linked immunosorbent assays (ELISA), bioluminescent imaging, or other methods. For nanoparticle compositions including mRNA, time courses of protein expression can also be evaluated. Samples collected from the rodents for evaluation may include blood, sera, and tissue (for example, muscle tissue from the site of an intramuscular injection and internal tissue); sample collection may involve sacrifice of the animals.
The efficacy of the nanoparticle compositions presented in Table 1A was evaluated with a bioluminescence study. Formulations were administered intravenously to mice (n=6) at a dosage of 0.5 mg/kg (mpk) and bioluminescence measured at 3, 6, and 24 hour time points. The standard MC3 formulation and, in some instances, a control (e.g., a PBS control) were evaluated for comparison. […] In general, flux decreased as time progressed to less than 10% of the initial flux.
as §2
The tolerability and efficacy of nanoparticle compositions to non-human primates was also investigated using sample formulations including Compounds 18, 25, 26, and 48 and MC3 to determine if these compounds are differentiated in terms of protein expression. The formulations were prepared according to the standard MC3 formulation described above and included an hEPO mRNA. Table 30 includes details of the compositions tested, while Table 31 summarizes the relative expression of Luc and hEPO mRNA in mice and rats. Expression was measured 6 hours after administration.

Row | SMILES | Total flux (p/s) 0.001 mpk Dose (mice [1]) | Total flux (p/s) 0.01 mpk Dose (mice [1]) | % Lipid Remaining in liver, 48 h* 2 mpk (rats) | PDI [2] | Size (nm) [2] | AUC (p/s*h) (mice [3])
1 | CCCCCCCCC(CCC)OC(=O)CCCCCCCN(CCO)CCCCCCCC(=O)OC(CCCCCCCC)CCCCCCCC (stereo not drawn) [Compound 50, dodecan-4-yl 8-((8-(heptadecan-9-yloxy)-8-oxooctyl)(2-hydroxyethyl)amino)octanoate] | 6.56E+05 p/s | 1.13E+07 p/s | 15.9% |  |  | 
2 | CCCCCCCCC(C)OC(=O)CCCCCCCN(CCO)CCCCCCCC(=O)OC(CCCCCCCC)CCCCCCCC (stereo not drawn) [Compound 48, decan-2-yl 8-((8-(heptadecan-9-yloxy)-8-oxooctyl)(2-hydroxyethyl)amino)octanoate] | 4.69E+05 p/s | 8.78E+06 p/s | 7.22% |  |  | 
3 | CCCCCCCCC(CC)OC(=O)CCCCCCCN(CCO)CCCCCCCC(=O)OC(CCCCCCCC)CCCCCCCC (stereo not drawn) [Compound 49, heptadecan-9-yl 8-((2-hydroxyethyl)(8-oxo-8-(undecan-3-yloxy)octyl)amino)octanoate] |  |  | 12.6% | 0.110 | 73.1 nm | 
4 | CCCCCCCCCOC(=O)CCCCCCCN(CCCCCCCC(=O)OC(CCCCCCCC)CCCCCCCC)C(CO)CO [Compound 156, Heptadecan-9-yl 8-((1,3-dihydroxypropan-2-yl)(8-(nonyloxy)-8-oxooctyl)amino)octanoate] |  |  |  | 0.072 | 74.3 nm | 1.170E+011 p/s*h
5 | CCCCCCCCCOC(=O)CCCN(CCO)CCCCCCCC(=O)OC(CCCCCCCC)CCCCCCCC [Compound 26, Heptadecan-9-yl 8-((2-hydroxyethyl)(4-(nonyloxy)-4-oxobutyl)amino)octanoate] | 3.90E+06 p/s | 6.13E+07 p/s | 20% |  |  | 

Source: patent US12404232B2, “Compounds and compositions for intracellular delivery of therapeutic agents” (ModernaTX, Inc., priority 2015, dated 2025)
